Experimental data taken from publication PMC6072100, “Exploring the links between peptoid antibacterial activity and toxicity” (MedChemComm, 2017).
Square brackets hold non-standard residues; d marks the D form. Peptide text beside a SMILES is read from it. N(isopentyl)Gly = CC(C)CCNCC(=O)O; Nspe = C[C@H](NCC(=O)O)c1ccccc1; NhArg = N=C(N)NCCCCNCC(=O)O; Nlys = NCCCCNCC(=O)O

Key:
[1] = tested on: Staphylococcus epidermidis (laboratory strain from clinical isolate); type: cell-based; details: lowest concentration completely inhibiting growth, 37 °C, 16 h; range 2–100 μM
Experimental: (§1) Escherichia coli K-12 wild-type strain (W3110/ATCC27325, F^–, λ^–, rpoS(Am), rph-1, Inv(rrnD-rrnE)), Pseudomonas aeruginosa PA01 (ATCC 15692) Staphylococcus aureus (3R7089 strain Oxford/ATCC9144) and Staphylococcus epidermidis (laboratory strain from clinical isolate) were selected for bacteriological studies as representative Gram-negative (E. coli and P. aeruginosa) and Gram-positive (S. aureus and S. epidermidis) species. Bacterial cultures were prepared by streaking bacterial strains onto LB agar plates with an inoculation loop and incubated overnight at 37 °C. A single colony was selected and placed in 5 mL of Iso-sensitest broth (Oxoid, ThermoScientific) and incubated with shaking for 16–18 h at 37 °C to provide liquid cultures for testing.
(§2) MIC values were obtained according to the protocol described by J. M. Andrews et al.[58] and were conducted in 96-well plates (Sarstedt). Bacteria were grown from overnight cultures in Iso-sensitest broth to an A650nm of 0.07 equivalent to a 0.5 MacFarland standard (240 μM BaCl2 in 0.18 M H2SO4). This culture was diluted ten-fold with Iso-sensitest broth before use. Peptoids were initially dissolved in DMSO (5 mM) and diluted further in Iso-sensitest broth to achieve a concentration range of 4–200 μM using 2-fold serial dilutions. 50 μl of inoculum and 50 μl of peptoid solution were added to each test well (final concentration range of 2–100 μM). Experiments were performed in triplicate. A positive control for bacterial growth contained only the inoculum and Iso-sensitest broth. Other controls contained the inoculum and serial dilutions of ampicillin (from 250 μg mL^–1 to 2 μg mL^–1), serial dilutions of DMSO and the inoculum to confirm no inhibitory effect on bacterial growth, and Iso-sensitest broth alone as a sterile control. […] Quantitative data was attained from absorbance values using a Biotek Synergy H4 plate reader.
(§3) Antibacterial MIC determination
(§4) Escherichia coli K-12 wild-type strain (W3110 / ATCC27325, F-, λ-, rpoS(Am), rph-1, Inv(rrnD-rrnE)), Pseudomonas aeruginosa PA01 (ATCC 15692) Staphylococcus aureus (3R7089 strain Oxford / ATCC9144) and Staphylococcus epidermidis (laboratory strain from clinical isolate) were selected for bacteriological studies as representative Gram-negative (E. coli and P. aeruginosa) and Gram-positive (S. aureus and S. epidermidis) species. Bacterial cultures were prepared by streaking bacterial strains onto LB agar plates with an inoculation loop and incubated overnight at 37 °C.
(§5) A single colony was selected and placed in 5 mL of Iso-sensitest broth (Oxoid, ThermoScientific) and incubated with shaking for 16-18 h at 37 °C to provide liquid […]
(§6) MIC values were obtained according to the protocol described by J. M. Andrews et al.1 and were conducted in 96-well plates (Sarstedt). Bacteria were grown from overnight cultures in Iso-sensitest broth to an A650nm of 0.07 equivalent to a 0.5 MacFarland standard (240 μM BaCl2 in 0.18 M H2SO4). This culture was diluted ten-fold with Iso-sensitest broth before use. Peptoids were initially dissolved in DMSO (5 mM) and diluted further in Iso-sensitest broth to achieve a concentration range of 4 – 200 µM using 2-fold serial dilutions. 50 μl of inoculum and 50 μl of peptoid solution were added to each test well (final concentration range of 2 – 100 µM). Experiments were performed in triplicate. A positive control for bacterial growth contained only the inoculum and Iso-sensitest broth. Other controls contained the inoculum and serial dilutions of ampicillin (from 250 µg/mL to 2 µg/mL), serial dilutions of DMSO and the inoculum to confirm no inhibitory effect on bacterial growth, and Iso-sensitest broth alone as a sterile control. […]
(§7) growth after incubation at 37 °C for 16 h with shaking. Quantitative data was attained from absorbance values using a Biotek Synergy H4 plate reader.

[2] = tested on: Staphylococcus aureus (3R7089 strain Oxford/ATCC9144); type: cell-based; details: lowest concentration completely inhibiting growth, 37 °C, 16 h; range 2–100 μM
Experimental: as §1, §2, §3, §4, §5, §6, §7

[3] = tested on: Pseudomonas aeruginosa PA01 (ATCC 15692); type: cell-based; details: lowest concentration completely inhibiting growth, 37 °C, 16 h; range 2–100 μM
Experimental: as §1, §2, §3, §4, §5, §6, §7

[4] = tested on: Escherichia coli K-12 wild-type strain (W3110/ATCC27325); type: cell-based; details: lowest concentration completely inhibiting growth, 37 °C, 16 h; range 2–100 μM
Experimental: as §1, §2, §3, §4, §5, §6, §7

[5] = Skin cell toxicity assay with HaCaT (alamarBlue); type: cell-based, human; details: human, HaCaT cells (keratinocytes), ED50 HaCaT
Experimental: The activity of our peptoid library was assessed against both bacterial and mammalian cells to gain a broader understanding of the factors that lead to effective and selective antimicrobial peptoids. We screened for broad-spectrum antibacterial activity against Gram-negative (Escherichia coli and Pseudomonas aeruginosa) and Gram-positive (Staphylococcus aureus and S. epidermidis) bacteria. The toxicity of the library was also assessed against two mammalian cell lines; HaCaT spontaneously transformed aneuploid keratinocytes were employed to model toxicity against human skin cells and HepG2, a cell line derived from a human liver carcinoma, were used as a study on polarised human hepatocytes. Detailed methods for these assays can be found in the ESI. ^‡ […]
Please note – ED50, the median effective dose, was defined as the dose that kills 50% of cells.
Cytotoxicity analyses were performed in 96-well plates (Costar, Fisher Scientific) using alamarBlue® (Invitrogen) for cell viability detection using a modified protocol as described previously. HepG2 or HaCaT cells were subcultured at 37 °C, 5% CO2 in DMEM high glucose supplemented with heat-inactivated foetal bovine sera (FBS, 10%; Biosera Ltd) and penicillin/streptomycin (P/S, 1%). Cells were counted using a Neubauer Improved Haemocytometer. HepG2 cells were seeded 1 day prior to treatment in 96 well plates at a concentration of 2 × 10^5 cells per mL in 100 μL of medium (2 × 10^4 cells per well). Then cells were pre-incubated with the compounds in triplicate in a dilution series in triplicate from 2–100 μM (5 mM stock solutions in DMSO diluted from 100 μM to 3 μM; untreated cells with DMSO as a negative control) in 50 μl of the media for 1 hour. Afterwards, 40 μL were removed from each well before the addition of 90 μL of the media, followed by incubation for 24 hours at 37 °C, 5% CO2. Then, 10 μL of alamarBlue® (Invitrogen) was added to each well before a 2 hour incubation prior to assessing cell viability using a fluorescent plate reader (Biotek; Ex 560 nm/Em 600 nm). All data were measured in triplicate on a minimum of two occasions to ensure a robust data set was collected. The ED50 values were calculated from the dose response results achieved from the serial dilutions. […]
Cells were counted using a Neubauer Improved
Haemocytometer. […]
µM to 3 µM; untreated cells with DMSO as a negative control) in 50 µl of the media for 1 hour.
Afterwards, 40 µL were removed from each well before the addition of 90 µL of the media, followed by incubation for 24 hours at 37 °C, 5% CO2. Then, 10 µL of alamarBlue® (Invitrogen) was added to each well before a 2 hour incubation prior to assessing cell viability using a fluorescent plate reader (Biotek; Ex 560 nm / Em 600 nm). All data was measured in triplicate on a minimum of two occasions to ensure a robust data set was collected. The ED50 values were calculated from the dose response results achieved from the serial dilutions.
Skin Cell Toxicity assay with HaCaT […]
alamarBlue® (Invitrogen) for cell viability detection. HaCaT cells were subcultured at 37 °C, 5% CO2 in DMEM high glucose supplemented with heat-inactivated foetal bovine sera (FBS, 10%; Biosera Ltd) and penicillin/streptomycin (P/S, 1%). Cells were counted using a Neubauer Improved Haemocytometer. HaCaT cells were seeded in the plates 24 hours prior to treatment in 96 well plates at a concentration of 2x10^5 cells/mL in 100 µL of medium (2x10^4 cells/well).
Empty wells were filled with 100 µL PBS. After 24 hours, cells were incubated with the compounds in a dilution series in triplicate from 2 – 100 µM (5 mM stock solutions in DMSO diluted from 100 µM to 3 µM; Amphotericin B was used as a positive control and untreated cells with DMSO as a negative control) in 50 µL of the media for 1 hour. Afterwards, 40 µl was removed from each well, 90 µL of medium was added to each well and the cells incubated for 24 hours at 37 °C, 5% CO2. 10 µL of alamarBlue® (Invitrogen) was added to each well before […]

Compound	MIC S. epidermidis [1] [µM]	MIC S. aureus [2] [µM]	MIC P. aeruginosa [3] [µM]	MIC E. coli [4] [µM]	CC50 at 24 h [5] [µM]
CC(C)CCN(CC(=O)N(CC(N)=O)[C@@H](C)c1ccccc1)C(=O)CN(CCCCNC(=N)N)C(=O)CN(C(=O)CN(CCC(C)C)C(=O)CN(CCCCNC(=N)N)C(=O)CN(C(=O)CN(CCC(C)C)C(=O)CNCCCCNC(=N)N)[C@@H](C)c1ccccc1)[C@@H](C)c1ccccc1 [Peptoid 39, (NhArgNhLeuNspe)3] (H-[NhArg][N(isopentyl)Gly][Nspe][NhArg][N(isopentyl)Gly][Nspe][NhArg][N(isopentyl)Gly][Nspe]-NH2; N-terminus assumed)	2	3	100	–	–
C[C@@H](c1ccccc1)N(CC(N)=O)C(=O)CN(C(=O)CN(CCCCN)C(=O)CN(C(=O)CN(C(=O)CN(CCCCN)C(=O)CN(C(=O)CN(C(=O)CN(CCCCNC(=N)N)C(=O)CN(C(=O)CN(C(=O)CNCCCCN)[C@@H](C)c1ccccc1)[C@@H](C)c1ccccc1)[C@@H](C)c1ccccc1)[C@@H](C)c1ccccc1)[C@@H](C)c1ccccc1)[C@@H](C)c1ccccc1)[C@@H](C)c1ccccc1 [Peptoid 43, (NLysNspeNspe)(NhArgNspeNspe)(NLysNspeNspe)2] (H-[Nlys][Nspe][Nspe][NhArg][Nspe][Nspe][Nlys][Nspe][Nspe][Nlys][Nspe][Nspe]-NH2)	–	17	17	17	33
N=C(N)NCCCCNCC(=O)N(CC(=O)N(CC(=O)N(CCCCNC(=N)N)CC(=O)N(CC(=O)N(CC(=O)N(CCCCNC(=N)N)CC(=O)N(CC(=O)N(CC(N)=O)Cc1cccc(F)c1)Cc1cccc(F)c1)Cc1cccc(F)c1)Cc1cccc(F)c1)Cc1cccc(F)c1)Cc1cccc(F)c1 [Peptoid 37, (NhArgNmfbNmfb)3]	1	2	25	6	–
C[C@@H](c1ccccc1)N(CC(N)=O)C(=O)CN(C(=O)CN(CCCCN)C(=O)CN(C(=O)CN(C(=O)CN(CCCCN)C(=O)CN(C(=O)CN(C(=O)CN(CCCCNC(=N)N)C(=O)CN(C(=O)CN(C(=O)CNCCCCNC(=N)N)[C@@H](C)c1ccccc1)[C@@H](C)c1ccccc1)[C@@H](C)c1ccccc1)[C@@H](C)c1ccccc1)[C@@H](C)c1ccccc1)[C@@H](C)c1ccccc1)[C@@H](C)c1ccccc1 [Peptoid 42, (NhArgNspeNspe)2(NLysNspeNspe)2] (H-[NhArg][Nspe][Nspe][NhArg][Nspe][Nspe][Nlys][Nspe][Nspe][Nlys][Nspe][Nspe]-NH2)	–	17	17	17	15
CC(C)CCN(CC(=O)N(CC(N)=O)[C@@H](C)c1ccccc1)C(=O)CN(CCCCNC(=N)N)C(=O)CN(C(=O)CN(CCC(C)C)C(=O)CN(CCCCNC(=N)N)C(=O)CN(C(=O)CN(CCC(C)C)C(=O)CN(CCCCNC(=N)N)C(=O)CN(C(=O)CN(CCC(C)C)C(=O)CNCCCCNC(=N)N)[C@@H](C)c1ccccc1)[C@@H](C)c1ccccc1)[C@@H](C)c1ccccc1 [Peptoid 38, (NhArgNhLeuNspe)4] (H-[NhArg][N(isopentyl)Gly][Nspe][NhArg][N(isopentyl)Gly][Nspe][NhArg][N(isopentyl)Gly][Nspe][NhArg][N(isopentyl)Gly][Nspe]-NH2; N-terminus assumed)	2	1	25	13	–
C[C@@H](c1ccccc1)N(CC(N)=O)C(=O)CN(C(=O)CN(CCCCNC(=N)N)C(=O)CN(C(=O)CN(C(=O)CN(CCCCNC(=N)N)C(=O)CN(C(=O)CN(C(=O)CNCCCCNC(=N)N)[C@@H](C)c1ccccc1)[C@@H](C)c1ccccc1)[C@@H](C)c1ccccc1)[C@@H](C)c1ccccc1)[C@@H](C)c1ccccc1 [Peptoid 35, (NhArgNspeNspe)3] (H-[NhArg][Nspe][Nspe][NhArg][Nspe][Nspe][NhArg][Nspe][Nspe]-NH2; N-terminus assumed)	2	2	50	6	–
